Laboratory results: patent US20110275714A1, “Use Of Cationic Surfactants As Acaricidal Agents” (priority 2009, published 2011)
“Also recorded” adds a separate entry of the source.

Experiments:
[1] = test system: Hyalomma marginatum rufipes; experiment: Mortality of adult ticks in vials with LAE in a food carrier (Example 1); settings: 24 h contact
Experimental: This example determines the activity of LAE against a type of tick, Hyalomma marginatum rufipes.
During 3 weeks adult ticks of Hyalomma marginatum rufipes were unfed. 15 unsexed ticks were introduced in each vial of treatment. All vials were closed with a mesh and plastic bands in order to avoid that ticks could escape from the vials. The mortality of ticks was studied 24 h later and compared from the different treatments performed.
Two types of treatment were performed and then compared with the control. One treatment consisted in a dispersion of 0.2% LAE in a food carrier. The other treatment was 1.0% LAE in a food carrier. The control was a vial that contained the ticks without LAE. For each treatment and control samples 5 replicates were carried out.
After 24 hours of contact of ticks with LAE in the vials, the percentage of mortality of ticks was determined (Table 2).

[2] = test system: Mold mite Tyrophagus putrescentiae; experiment: Mold mite survivorship in rearing diet with LAE, six weeks (Example 2); assay type: in vivo; settings: 1% LAE in diet
Experimental: This example determines the effect of LAE on the mortality, reproduction and immature development of Mold mite Tyrophagus putrescentiae.
(§1) Mixed developmental stages of the Mold mite, Tyrophagus putrescentiae, were used in the experiments. The individuals of the species came from IRTA, Crop Protection Department and had been maintained on standard diets at 25±1° C., 70±10% r.h. and a photoperiod of 16:8 L:D. Experiments were conducted in a climatic chamber at the same environmental conditions.
The food additive (LAE) was supplied by the company VEDEQSA as a fine sifted dust, and was uniformly mixed with a mix of bran, brewer's yeast and glycerin for the Mold mite. A high dosage of 1% LAE was tested. A control treatment with no food additive was included for reference. Fifteen replications per treatment were prepared.
(§2) For the mold mite, the experimental arenas were ventilated plastic cages (100 ml) containing 15 g of a mixed diet (bran, brewer's yeast and giycerine). Mites were added to arenas in numbers of 25 individuals. Plastic cages were isolated in hermetic boxes containing a solution of glycerine in order to maintain the relative humidity at 75%.
Six weeks after T. putrescentiae infestation the total number of individuals present in each replication was counted. […]

[3] = test system: Mold mite Tyrophagus putrescentiae; experiment: Mold mite survivorship in diet with Mirenat-G (LAE in glycerin), four weeks (Example 3); assay type: in vivo; settings: for Mold mites number: four weeks after infestation with 25 individuals, n = 15, means ± SEM
Experimental: This example determines the effect of three different concentrations of LAE on the mortality, reproduction and immature development of mold mite Tyrophagus putrescentiae. The dose level tested were 0.125%, 0.25% and 0.5% of LAE.
as §1, with “this specie” for “the species”
The food additive Mirenat-G (10.5% LAE in glycerin) was supplied by the company VEDEQSA and was uniformly mixed with a mix of bran, brewer's yeast for the Mold mite. It was tested at the following dosages of 0.125%, 0.25% and 0.5% LAE. A control treatment with no food additive was included for reference. Fifteen replications per treatment were prepared.
as §2, with “glycerin).” for “giycerine).”
Four weeks after T. putrescentiae infestation the total number of individuals present in each replication was counted.
The mean number of individuals were compared between treatments with or without the additive for the pest specie using a one-way analysis of variance (ANOVA) procedure and means were separated by Tukey test (PROC GLM; SAS Institute 2000).

mite colonies = experiment: Mite colonies on cured ham treated with LAE on the surface (Example 4); assay type: in vivo
Experimental: A dose level of 200 ppm of LAE (or 0.02% of LAE) was added onto the surface of a ham at the beginning of its curing process. The results were compared with a control sample that consisted on a cured ham without being treated with LAE. All hams (control and treated with LAE) were cured during a period of 6 months.
After 6 months, when the curing process was finished it was observed that 85% of ham not treated with LAE (control samples) had mite colonies alive onto the surfaces of hams. In contrast, only 30% of hams treated with LAE had mite colonies alive onto their surface.
Before delivering the hams to the client, the producer extracted the bone in order to slice the ham. It was observed that 25% of ham non-treated with LAE (control) contained mite colonies alive inside the ham. The presence of mite colonies produced the formation of holes between 2 to 3 cm of diameter. These holes in the ham looked like a putrefacted ham.

[4] = test system: Arthrobacter oxydans ATCC 8010; settings: Gram + Bacteria; cited from earlier work
[5] = test system: Bacillus cereus var mycoide ATCC 11778; settings: Gram + Bacteria; cited from earlier work
[6] = test system: Bacillus subtilis ATCC 6633; settings: Gram + Bacteria; cited from earlier work
[7] = test system: Clostridium perfringens ATCC 77454; settings: Gram + Bacteria; cited from earlier work
[8] = test system: Listeria monocytogenes ATCC 7644; settings: Gram + Bacteria; cited from earlier work
[9] = test system: Staphylococcus aureus ATCC 6538; settings: Gram + Bacteria; cited from earlier work
[10] = test system: Micrococcus luteus ATCC 9631; settings: Gram + Bacteria; cited from earlier work
[11] = test system: Lactobacillus delbrueckii ssp lactis CECT 372; settings: Gram + Bacteria; cited from earlier work
[12] = test system: Leuconostoc mesenteroides CETC 912; settings: Gram + Bacteria; cited from earlier work
[13] = test system: Alcaligenes faecalis ATCC 8750; settings: Gram − Bacteria; cited from earlier work
[14] = test system: Bordetella bronchiseptica ATCC 4617; settings: Gram − Bacteria; cited from earlier work
[15] = test system: Citrobacter freundii ATCC 22636; settings: Gram − Bacteria; cited from earlier work
[16] = test system: Enterobacter aerogenes CECT 689; settings: Gram − Bacteria; cited from earlier work
[17] = test system: Escherichia coli ATCC 8739; settings: Gram − Bacteria; cited from earlier work
Escherichia coli 0157H7 = settings: Gram − Bacteria; cited from earlier work
[18] = test system: Klebsiella pneumoniae var pneumoniae CECT 178; settings: Gram − Bacteria; cited from earlier work
[19] = test system: Proteus mirabilis CECT 170; settings: Gram − Bacteria; cited from earlier work
[20] = test system: Pseudomonas aeruginosa ATCC 9027; settings: Gram − Bacteria; cited from earlier work
[21] = test system: Salmonella typhimurium ATCC16028; settings: Gram − Bacteria; cited from earlier work
[22] = test system: Serratia marcenses CECT 274; settings: Gram − Bacteria; cited from earlier work
[23] = test system: Mycobacterium phlei ATCC 41423; settings: listed under Gram − Bacteria; cited from earlier work
[24] = test system: Aspergillus niger ATCC14604; settings: Fungi; cited from earlier work
[25] = test system: Aureobasidium pullulans ATCC 9348; settings: Fungi; cited from earlier work
[26] = test system: Gliocadium virens ATCC 4645; settings: Fungi; cited from earlier work
[27] = test system: Chaetonium globosum ATCC 6205; settings: Fungi; cited from earlier work
[28] = test system: Penicillium chrysogenum CECT 2802; settings: Fungi; cited from earlier work
[29] = test system: Penicillium funiculosum CECT 2914; settings: Fungi; cited from earlier work
[30] = test system: Candida albicans ATCC 10231; settings: Yeast; cited from earlier work
[31] = test system: Rhodotorula rubra CECT 1158; settings: Yeast; cited from earlier work
[32] = test system: Saccharomyces cerevisiae ATCC 9763; settings: Yeast; cited from earlier work
[33] = rats; cited from earlier work
[34] = animals and humans; cited from earlier work

CCCCCCCCCCCC(=O)N[C@@H](CCCN=C(N)N)C(=O)OCC.Cl [LAE, ethyl ester of the lauramide of the arginine monohydrochloride]
Mortality ([1]; 0.2% LAE in a food carrier, n = 5): 6.7%
Mortality ([1]; 1.0% LAE in a food carrier, n = 5, monohydrochloride): 38.7%
Mold mites number ([2]; six weeks after infestation with 25 individuals, n = 15, mean ± SEM): 0.1 ± 0.1^
survivorship of the Mold mite in the standard rearing diet ([2]; six weeks after infestation, monohydrochloride): did not survive; also recorded: very low
Mold mites number ([3]; 0.125% LAE (as Mirenat-G) in diet): 20.9 ± 9.77
Mold mites number ([3]; 0.25% LAE (as Mirenat-G) in diet): 13.17 ± 3.70
Mold mites number ([3]; 0.5% LAE (as Mirenat-G) in diet): 6.7 ± 1.49
reduction in the mean number of individuals present ([3]; 0.5% of LAE, after 4-week infestation): 70%
hams with mite colonies alive onto their surface (mite colonies; 200 ppm (0.02%) LAE on ham surface at start of curing, after 6 months curing): 30%
mite colonies alive inside the ham (mite colonies; 200 ppm (0.02%) LAE on ham surface, sliced ham after 6 months curing): no presence of mite colonies alive inside the ham
M.I.C. [4]: 64 ppm
M.I.C. [5]: 32 ppm
M.I.C. [6]: 16 ppm
M.I.C. [7]: 16 ppm
M.I.C. [8]: 10 ppm
M.I.C. [9]: 32 ppm
M.I.C. [10]: 128 ppm
M.I.C. [11]: 16 ppm
M.I.C. [12]: 32 ppm
M.I.C. [13]: 64 ppm
M.I.C. [14]: 128 ppm
M.I.C. [15]: 64 ppm
M.I.C. [16]: 32 ppm
M.I.C. [17]: 32 ppm
M.I.C. (Escherichia coli 0157H7): 20 ppm
M.I.C. [18]: 32 ppm
M.I.C. [19]: 32 ppm
M.I.C. [20]: 64 ppm
M.I.C. [21]: 32 ppm
M.I.C. [22]: 32 ppm
M.I.C. [23]: 2 ppm
M.I.C. [24]: 32 ppm
M.I.C. [25]: 16 ppm
M.I.C. [26]: 32 ppm
M.I.C. [27]: 16 ppm
M.I.C. [28]: 128 ppm
M.I.C. [29]: 16 ppm
M.I.C. [30]: 16 ppm
M.I.C. [31]: 16 ppm
M.I.C. [32]: 32 ppm
absorption and metabolisation [33]: fast absorption and metabolisation into naturally-occurring amino acids and the fatty acid lauric acid
toxicological studies [34]: completely harmless to animals and humans
